pIC50: −log10 of the molar value. Several values for one entry are separate records, joined by “and”; a condition that tells them apart may be missing. Equal entries are not always repeated. Activity calls are given as the source filed them. Rule for the calls: active = viability on the fitted dose curve at most 10% of control; inactive = the rest.
System: NCI-H1618 multicellular tumor spheroid viability
Assay: Anticancer human tumor NCI-H1618 cell line growth inhibition;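 note: spheroids exposed to agents for 7 days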
Conditions: for pIC50: curve of first compound; for viability, T/C: stronger effect = lower value
Method in brief: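 Complex tumor spheroids combined malignant cells with endothelial cells and mesenchymal stem cells. DNA-damaging drugs and DNA repair inhibitors were tested alone and in combination, at half-log dilutions down from clinical Cmax (top 10 microM if Cmax unknown), 0.25% DMSO final.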

[1] = second compound 30 pM, first compound 0.0316 µM
[2] = second compound 30 pM, first compound 0.1 µM
[3] = second compound 30 pM, first compound 0.316 µM
[4] = second compound 30 pM, first compound 1 µM
[5] = second compound 30 pM, first compound 3.16 µM
[6] = second compound 30 pM, first compound 10 µM
[7] = second compound 94.9 pM, first compound 0.0316 µM
[8] = second compound 94.9 pM, first compound 0.1 µM
[9] = second compound 94.9 pM, first compound 0.316 µM
[10] = second compound 94.9 pM, first compound 1 µM
[11] = second compound 94.9 pM, first compound 3.16 µM
[12] = second compound 94.9 pM, first compound 10 µM
[13] = second compound 0.0003 µM, first compound 0.0316 µM
[14] = second compound 0.0003 µM, first compound 0.1 µM
[15] = second compound 0.0003 µM, first compound 0.316 µM
[16] = second compound 0.0003 µM, first compound 1 µM
[17] = second compound 0.0003 µM, first compound 3.16 µM
[18] = second compound 0.0003 µM, first compound 10 µM
[19] = second compound 0.000949 µM, first compound 0.0316 µM
[20] = second compound 0.000949 µM, first compound 0.1 µM
[21] = second compound 0.000949 µM, first compound 0.316 µM
[22] = second compound 0.000949 µM, first compound 1 µM
[23] = second compound 0.000949 µM, first compound 3.16 µM
[24] = second compound 0.000949 µM, first compound 10 µM
[25] = second compound 0.003 µM, first compound 0.0316 µM
[26] = second compound 0.003 µM, first compound 0.1 µM
[27] = second compound 0.003 µM, first compound 0.316 µM
[28] = second compound 0.003 µM, first compound 1 µM
[29] = second compound 0.003 µM, first compound 3.16 µM
[30] = second compound 0.003 µM, first compound 10 µM

CC1COCCN1c1cc(-c2ccnn2C)c2ccnc(-c3ccn[nH]3)c2n1 (stereo not drawn) + COc1cc2c(cc1O)CCNC21CSC2c3c(OC(C)=O)c(C)c4c(c3C(COC1=O)N1C(O)C3Cc5cc(C)c(OC)c(O)c5C(C21)N3C)OCO4
pIC50 (second compound 30 pM): > 7.50
pIC50 (second compound 94.9 pM): > 7.50
pIC50 (second compound 0.0003 µM): > 7.50
pIC50 (second compound 0.000949 µM): > 7.50
pIC50 (second compound 0.003 µM): > 7.50
viability, T/C [1]: 41%
viability, T/C [2]: 8.59%
viability, T/C [3]: 2.6%
viability, T/C [4]: 1.69%
viability, T/C [5]: 1.44%
viability, T/C [6]: 1.07%
viability, T/C [7]: 4.76%
viability, T/C [8]: 7.64%
viability, T/C [9]: 1.66%
viability, T/C [10]: 2.1%
viability, T/C [11]: 0.97%
viability, T/C [12]: 1.13%
viability, T/C [13]: 7.32%
viability, T/C [14]: 1.52%
viability, T/C [15]: 2.44%
viability, T/C [16]: 1.22%
viability, T/C [17]: 1.2%
viability, T/C [18]: 1.07%
viability, T/C [19]: 1.86%
viability, T/C [20]: 2.16%
viability, T/C [21]: 1.58%
viability, T/C [22]: 1.26%
viability, T/C [23]: 1.11%
viability, T/C [24]: 1.22%
viability, T/C [25]: 1.5%
viability, T/C [26]: 1.77%
viability, T/C [27]: 2.41%
viability, T/C [28]: 2.07%
viability, T/C [29]: 1.2%
viability, T/C [30]: 1.35%

Cn1ncnc1[C@H]1c2n[nH]c(=O)c3cc(F)cc(c23)N[C@@H]1c1ccc(F)cc1 + Cn1nnc2c(C(N)=O)ncn2c1=O
pIC50 (second compound 1 µM): 8.01
pIC50 (second compound 3.16 µM): > 8.02
pIC50 (second compound 10 µM): > 8.02
pIC50 (second compound 31.6 µM): > 8.02
pIC50 (second compound 100 µM): > 8.02
viability, T/C (second compound 1 µM, first compound 0.00949 µM): 50.5%
viability, T/C (second compound 1 µM, first compound 0.03 µM): 26.7%
viability, T/C (second compound 1 µM, first compound 0.0949 µM): 4.42%
viability, T/C (second compound 1 µM, first compound 0.3 µM): 1.85%
viability, T/C (second compound 1 µM, first compound 0.949 µM): 2.02%
viability, T/C (second compound 1 µM, first compound 3 µM): 2.04%
viability, T/C (second compound 3.16 µM, first compound 0.00949 µM): 3.96%
viability, T/C (second compound 3.16 µM, first compound 0.03 µM): 22.4%
viability, T/C (second compound 3.16 µM, first compound 0.0949 µM): 21.4%
viability, T/C (second compound 3.16 µM, first compound 0.3 µM): 1.75%
viability, T/C (second compound 3.16 µM, first compound 0.949 µM): 1.84%
viability, T/C (second compound 3.16 µM, first compound 3 µM): 19.8%
viability, T/C (second compound 10 µM, first compound 0.00949 µM): 19.2%
viability, T/C (second compound 10 µM, first compound 0.03 µM): 1.53%
viability, T/C (second compound 10 µM, first compound 0.0949 µM): 2.45%
viability, T/C (second compound 10 µM, first compound 0.3 µM): 2.8%
viability, T/C (second compound 10 µM, first compound 0.949 µM): 18.3%
viability, T/C (second compound 10 µM, first compound 3 µM): 1.95%
viability, T/C (second compound 31.6 µM, first compound 0.00949 µM): 1.95%
viability, T/C (second compound 31.6 µM, first compound 0.03 µM): 1.94%
viability, T/C (second compound 31.6 µM, first compound 0.0949 µM): 3.12%
viability, T/C (second compound 31.6 µM, first compound 0.3 µM): 1.9%
viability, T/C (second compound 31.6 µM, first compound 0.949 µM): 1.85%
viability, T/C (second compound 31.6 µM, first compound 3 µM): 2.06%
viability, T/C (second compound 100 µM, first compound 0.00949 µM): 1.84%
viability, T/C (second compound 100 µM, first compound 0.03 µM): 2.1%
viability, T/C (second compound 100 µM, first compound 0.0949 µM): 2.47%
viability, T/C (second compound 100 µM, first compound 0.3 µM): 2.51%
viability, T/C (second compound 100 µM, first compound 0.949 µM): 18.2%
viability, T/C (second compound 100 µM, first compound 3 µM): 2.29%

CC1COCCN1c1cc(-c2ccnn2C)c2ccnc(-c3ccn[nH]3)c2n1 (stereo not drawn) + Cn1nnc2c(C(N)=O)ncn2c1=O
pIC50 (second compound 1 µM): > 7.50
pIC50 (second compound 3.16 µM): > 7.50
pIC50 (second compound 10 µM): > 7.50
pIC50 (second compound 31.6 µM): > 7.50
pIC50 (second compound 100 µM): > 7.50
viability, T/C (second compound 1 µM, first compound 0.0316 µM): 3.35%
viability, T/C (second compound 1 µM, first compound 0.1 µM): 3.94%
viability, T/C (second compound 1 µM, first compound 0.316 µM): 1.49%
viability, T/C (second compound 1 µM, first compound 1 µM): 2.09%
viability, T/C (second compound 1 µM, first compound 3.16 µM): 1.02%
viability, T/C (second compound 1 µM, first compound 10 µM): 3.48%
viability, T/C (second compound 3.16 µM, first compound 0.0316 µM): 10.3%
viability, T/C (second compound 3.16 µM, first compound 0.1 µM): 1.64%
viability, T/C (second compound 3.16 µM, first compound 0.316 µM): 1.41%
viability, T/C (second compound 3.16 µM, first compound 1 µM): 1.67%
viability, T/C (second compound 3.16 µM, first compound 3.16 µM): 1.26%
viability, T/C (second compound 3.16 µM, first compound 10 µM): 2.12%
viability, T/C (second compound 10 µM, first compound 0.0316 µM): 1.82%
viability, T/C (second compound 10 µM, first compound 0.1 µM): 13.4%
viability, T/C (second compound 10 µM, first compound 0.316 µM): 1.48%
viability, T/C (second compound 10 µM, first compound 1 µM): 1.19%
viability, T/C (second compound 10 µM, first compound 3.16 µM): 1.65%
viability, T/C (second compound 10 µM, first compound 10 µM): 2.14%
viability, T/C (second compound 31.6 µM, first compound 0.0316 µM): 1.23%
viability, T/C (second compound 31.6 µM, first compound 0.1 µM): 1.26%
viability, T/C (second compound 31.6 µM, first compound 0.316 µM): 1.34%
viability, T/C (second compound 31.6 µM, first compound 1 µM): 1.03%
viability, T/C (second compound 31.6 µM, first compound 3.16 µM): 1.36%
viability, T/C (second compound 31.6 µM, first compound 10 µM): 1.55%
viability, T/C (second compound 100 µM, first compound 0.0316 µM): 1.42%
viability, T/C (second compound 100 µM, first compound 0.1 µM): 1.23%
viability, T/C (second compound 100 µM, first compound 0.316 µM): 1.48%
viability, T/C (second compound 100 µM, first compound 1 µM): 1.42%
viability, T/C (second compound 100 µM, first compound 3.16 µM): 13.7%
viability, T/C (second compound 100 µM, first compound 10 µM): 1.05%

[2H]c1nc(C)nc([2H])c1-c1cc(NC[C@@H](C)c2cccc3c(C(=O)NC)ccnc23)ncn1
viability, T/C (compound 0.0316 µM): 97% and 100% and 12.9%
viability, T/C (compound 0.1 µM): 98.5% and 98% and 8.24%
outcome (compound 0.316 µM): inactive
viability, T/C (compound 0.316 µM): 101% and 117%
viability, T/C (compound 1 µM): 96.4% and 101% and 142%
viability, T/C (compound 3.16 µM): 88.6% and 94% and 106%
viability, T/C (compound 10 µM): 97.2% and 102% and 91.8%

Cc1cc(C)c(CNC(=O)c2cc(-c3ccc(CN4CCOCC4)cc3)cc3c2cnn3C2CCCC2)c(=O)[nH]1 + COc1cc2c(cc1O)CCNC21CSC2c3c(OC(C)=O)c(C)c4c(c3C(COC1=O)N1C(O)C3Cc5cc(C)c(OC)c(O)c5C(C21)N3C)OCO4
pIC50 (second compound 30 pM): < 5.00
pIC50 (second compound 94.9 pM): 5.75
pIC50 (second compound 0.0003 µM): > 7.50
pIC50 (second compound 0.000949 µM): > 7.50
pIC50 (second compound 0.003 µM): > 7.50
viability, T/C [1]: 92.5%
viability, T/C [2]: 86.8%
viability, T/C [3]: 89.7%
viability, T/C [4]: 72.7%
viability, T/C [5]: 88%
viability, T/C [6]: 58.6%
viability, T/C [7]: 46.9%
viability, T/C [8]: 66.5%
viability, T/C [9]: 66.9%
viability, T/C [10]: 55%
viability, T/C [11]: 45.7%
viability, T/C [12]: 44.2%
viability, T/C [13]: 2.47%
viability, T/C [14]: 10.3%
viability, T/C [15]: 4.67%
viability, T/C [16]: 5.71%
viability, T/C [17]: 2.43%
viability, T/C [18]: 2.6%
viability, T/C [19]: 4.74%
viability, T/C [20]: 7.05%
viability, T/C [21]: 2.83%
viability, T/C [22]: 3.43%
viability, T/C [23]: 3.12%
viability, T/C [24]: 2.59%
viability, T/C [25]: 2.14%
viability, T/C [26]: 3%
viability, T/C [27]: 3.25%
viability, T/C [28]: 4.16%
viability, T/C [29]: 3.95%
viability, T/C [30]: 1.24%

Cn1ncnc1[C@H]1c2n[nH]c(=O)c3cc(F)cc(c23)N[C@@H]1c1ccc(F)cc1
viability, T/C (compound 0.00949 µM): 92.2% and 26.7% and 101%
viability, T/C (compound 0.03 µM): 91.8% and 23.5% and 84.8%
viability, T/C (compound 0.0949 µM): 88.2% and 22.8% and 79.8%
viability, T/C (compound 0.3 µM): 13.2% and 5.31% and 10.7%
viability, T/C (compound 0.949 µM): 1.9% and 23.1% and 3.83%
viability, T/C (compound 3 µM): 1.81% and 2.3% and 3.2%

Reference: PubChem BioAssay AID1845206 (Molecular Pharmacology Branch, DTP, NCI, 2023)
